Measurements: PubChem BioAssay AID330 (DTP/NCI, 2004)
Several values for one entry are separate records, joined by “and”; a condition that tells them apart may be missing. Identical values can stand only once. Inconclusive results and toxic doses are left out. How the source made its calls: active means survival T/C of 150% or more; inactive means T/C below 125% in these data.

Tested on: P388 leukemia ip, CD2F1 mice, survival T/C
Test: NCI In Vivo Anticancer Drug Screen. Data for tumor model P388 Leukemia (intraperitoneal) in CD2F1 (CDF1) mice
Conditions: endpoint: median survival time, higher = longer survival
Method in brief: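 Mice carrying the transplanted tumor received test compound or vehicle. Survival was recorded in each group, and the value is the treated-group measurement divided by that of the vehicle-treated control group.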

[1] = dose: 100.0 mg/kg/injection, schedule: Q01DX009 (ip), vehicle: Klucel (hydroxypropylcellulose) (HPC)
[2] = dose: 200.0 mg/kg/injection, schedule: Q01DX009 (ip), vehicle: Klucel (hydroxypropylcellulose) (HPC)
[3] = dose: 50.0 mg/kg/injection, schedule: Q01DX005 (ip), vehicle: Klucel (hydroxypropylcellulose) (HPC)
[4] = dose: 100.0 mg/kg/injection, schedule: Q01DX005 (ip), vehicle: Klucel (hydroxypropylcellulose) (HPC)
[5] = dose: 200.0 mg/kg/injection, schedule: Q01DX005 (ip), vehicle: Klucel (hydroxypropylcellulose) (HPC)
[6] = dose: 6.25 mg/kg/injection, schedule: Q01DX005 (ip), vehicle: Klucel (hydroxypropylcellulose) (HPC)
[7] = dose: 12.5 mg/kg/injection, schedule: Q01DX005 (ip), vehicle: Klucel (hydroxypropylcellulose) (HPC)
[8] = dose: 25.0 mg/kg/injection, schedule: Q01DX005 (ip), vehicle: Klucel (hydroxypropylcellulose) (HPC)

Measured: T/C

C[C@]12C=CC(=O)C=C1CC[C@@H]1[C@@H]2CC[C@@]2(C)[C@H]1CC[C@]2(C)O
inactive: dose: 50.0 mg/kg/injection, schedule: Q01DX005 (ip), vehicle: saline with Tween-80 97 % of control | dose: 100.0 mg/kg/injection, schedule: Q01DX005 (ip), vehicle: saline with Tween-80 95 % of control | [1] 110 % of control | [2] 90 % of control

O=C1Nc2ccccc2NC(=O)C1(O)O
inactive: [3] 100 % of control | [4] 101 % of control | [5] 101 % of control

C=C1C(=O)OC2CC(C)(O)C(O)CC3OC3(C)CC(OC(=O)/C(C)=C/C)C12 (stereo not given)
inactive: dose: 1.25 mg/kg/injection, schedule: Q01DX005 (ip), vehicle: Klucel (hydroxypropylcellulose) (HPC) 99 % of control | dose: 2.5 mg/kg/injection, schedule: Q01DX005 (ip), vehicle: Klucel (hydroxypropylcellulose) (HPC) 101 % of control | dose: 5.0 mg/kg/injection, schedule: Q01DX005 (ip), vehicle: Klucel (hydroxypropylcellulose) (HPC) 108 % of control | dose: 10.0 mg/kg/injection, schedule: Q01DX005 (ip), vehicle: Klucel (hydroxypropylcellulose) (HPC) 110 % of control

CCC[CH2][Sn]([CH2]CCC)([O]C(C)=O)[c]1ccccc1
inactive: dose: 1.56 mg/kg/injection, schedule: Q01DX009 (ip), vehicle: saline 97 % of control | dose: 3.12 mg/kg/injection, schedule: Q01DX009 (ip), vehicle: saline 103 % of control | dose: 6.25 mg/kg/injection, schedule: Q01DX009 (ip), vehicle: saline 96 % of control | dose: 50.0 mg/kg/injection, schedule: Q01DX009 (ip), vehicle: saline 97 % of control | dose: 100.0 mg/kg/injection, schedule: Q01DX009 (ip), vehicle: saline 95 % of control | dose: 200.0 mg/kg/injection, schedule: Q01DX009 (ip), vehicle: saline 100 % of control

Nc1[nH][nH]c(=O)c1N
inactive: dose: 50.0 mg/kg/injection, schedule: Q01DX005 (ip), vehicle: saline 101 % of control | dose: 100.0 mg/kg/injection, schedule: Q01DX005 (ip), vehicle: saline 101 % of control | dose: 200.0 mg/kg/injection, schedule: Q01DX005 (ip), vehicle: saline 107 % of control

CCOC(=O)c1ccc(NC(=O)Oc2cc(C)ccc2C)cc1
inactive: dose: 3.75 mg/kg/injection, schedule: Q01DX005 (ip), vehicle: saline with Tween-80 93 % of control | dose: 7.5 mg/kg/injection, schedule: Q01DX005 (ip), vehicle: saline with Tween-80 90 % of control | dose: 15.0 mg/kg/injection, schedule: Q01DX005 (ip), vehicle: saline with Tween-80 90 % of control and 94 % of control | dose: 60.0 mg/kg/injection, schedule: Q01DX005 (ip), vehicle: saline with Tween-80 94 % of control

O=C(C[n+]1cc2ccccc2c2ccccc21)c1ccc(-c2ccccc2)cc1
inactive: [6] 104 % of control | [7] 104 % of control | [8] 110 % of control | [3] 105 % of control | [4] 109 % of control

COc1nccn2c(C)nnc12
inactive: dose: 100.0 mg/kg/injection, schedule: Q01DX001 (ip), vehicle: Klucel (hydroxypropylcellulose) (HPC) 100 % of control | dose: 200.0 mg/kg/injection, schedule: Q01DX001 (ip), vehicle: Klucel (hydroxypropylcellulose) (HPC) 100 % of control

CCOC(=O)CCC(Br)(Br)Br
inactive: dose: 50.0 mg/kg/injection, schedule: Q01DX009 (ip), vehicle: Klucel (hydroxypropylcellulose) (HPC) 100 % of control | [1] 100 % of control | [2] 97 % of control

CC1(C)CC(NC2CCCCC2)=CC(=NC2CCCCC2)N1
inactive: [6] 100 % of control | [7] 105 % of control | [8] 99 % of control and 101 % of control | [3] 100 % of control

O=C(C/C(=N\C(=S)Nc1cc(C(F)(F)F)ccc1Cl)NO)N1CCCC1
inactive: dose: 25.0 mg/kg/injection, schedule: Q01DX009 (ip), vehicle: saline with Tween-80 101 % of control and 116 % of control | dose: 50.0 mg/kg/injection, schedule: Q01DX009 (ip), vehicle: saline with Tween-80 105 % of control and 112 % of control | dose: 100.0 mg/kg/injection, schedule: Q01DX009 (ip), vehicle: saline with Tween-80 117 % of control | dose: 200.0 mg/kg/injection, schedule: Q01DX009 (ip), vehicle: saline with Tween-80 117 % of control

O=C(Nc1ccccc1)/C(N=Nc1ccc([N+](=O)[O-])cc1Cl)=N/Nc1ccccc1S(=O)(=O)O
inactive: [3] 102 % of control | [4] 101 % of control | [5] 91 % of control
